In ChEMBL document CHEMBL4339194 (J Med Chem, 2019):

Tests used:
Catenin beta-1 = molecular target: T1, Catenin beta-1 (Homo sapiens, UniProt P35222)
T1 sequence (P35222 whole entry): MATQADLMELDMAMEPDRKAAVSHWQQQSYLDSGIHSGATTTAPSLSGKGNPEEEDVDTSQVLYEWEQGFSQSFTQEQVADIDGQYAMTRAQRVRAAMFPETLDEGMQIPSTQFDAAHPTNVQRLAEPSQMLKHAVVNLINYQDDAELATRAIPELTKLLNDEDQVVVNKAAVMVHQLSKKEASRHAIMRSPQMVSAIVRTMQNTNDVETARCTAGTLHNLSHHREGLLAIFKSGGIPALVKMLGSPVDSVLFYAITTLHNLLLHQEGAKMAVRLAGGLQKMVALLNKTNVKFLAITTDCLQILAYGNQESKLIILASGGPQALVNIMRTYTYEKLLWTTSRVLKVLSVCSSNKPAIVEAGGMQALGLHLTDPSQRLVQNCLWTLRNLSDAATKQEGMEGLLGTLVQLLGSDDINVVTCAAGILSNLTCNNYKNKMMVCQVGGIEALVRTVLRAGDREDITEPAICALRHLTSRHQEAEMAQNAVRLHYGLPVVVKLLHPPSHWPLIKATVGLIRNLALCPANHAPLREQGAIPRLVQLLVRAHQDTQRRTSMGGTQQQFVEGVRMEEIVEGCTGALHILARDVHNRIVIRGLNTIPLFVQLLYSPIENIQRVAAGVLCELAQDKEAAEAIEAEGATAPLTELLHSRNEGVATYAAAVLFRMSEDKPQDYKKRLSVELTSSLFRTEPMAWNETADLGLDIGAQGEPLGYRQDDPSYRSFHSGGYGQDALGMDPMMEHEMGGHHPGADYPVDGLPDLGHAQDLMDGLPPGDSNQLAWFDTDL

MDA-MB-468 = test: Cytotoxicity against human MDA-MB-468 cells assessed as reduction in cell viability measured after 72 hrs by MTS assay; assay type: functional, cell-based; details: MDA-MB-468, 72 h
[1] = Drug uptake in human SW480 cells assessed as cell-bound level per million cells at 25 uM measured after 3 hrs by HPLC-MS analysis; assay type: ADME, cell-based; details: sw480, 3 h
A549 = test: Cytotoxicity against human A549 cells assessed as reduction in cell viability measured after 72 hrs by MTS assay; assay type: functional, cell-based; details: A549, 72 h
MDA-MB-231 = test: Cytotoxicity against human MDA-MB-231 cells assessed as reduction in cell viability measured after 72 hrs by MTS assay; assay type: functional, cell-based; details: MDA-MB-231, 72 h
HCT-116 = test: Cytotoxicity against human HCT116 cells assessed as reduction in cell viability measured after 72 hrs by MTS assay; assay type: functional, cell-based; details: HCT-116, 72 h
[2] = Prodrug conversion in human SW480 cells assessed as (S)-4-((S)-2-((S)-2-(5-Chloro-1H-indole-2-carboxamido)-3-(naphthalen-2-yl)propanamido)-3-(2H-tetrazol-5-yl)propanamido)-5-oxo-5-((4-(trifluoromethoxy)phenyl)amino)pentanoic Acid formation at 25 uM measured after 24 hrs by HPLC-MS analysis; assay type: ADME, cell-based; details: sw480, 24 h
SW480 = test: Cytotoxicity against human SW480 cells assessed as reduction in cell viability measured after 72 hrs by MTS assay; assay type: functional, cell-based; details: SW480, 72 h
BT-20 = test: Cytotoxicity against human BT20 cells assessed as reduction in cell viability measured after 72 hrs by MTS assay; assay type: functional, cell-based; details: BT-20, 72 h

| SMILES | IC50 (Catenin beta-1) | Ki (Catenin beta-1) | also measured |
| --- | --- | --- | --- |
| COC(=O)[C@H](CCC(=O)O)NC(=O)[C@H](CC(=O)O)NC(=O)[C@H](Cc1ccc2ccccc2c1)NC(=O)Cc1nc2ccc(Cl)cc2o1 | > 400 µM | > 100 µM | – |
| COC(=O)[C@H](CCC(=O)O)NC(=O)[C@H](CC(=O)O)NC(=O)[C@H](Cc1ccc2ccccc2c1)NC(=O)Cc1nc2cc(Cl)ccc2[nH]1 | > 400 µM | > 100 µM | – |
| COC(=O)[C@H](CCC(=O)O)NC(=O)[C@H](CC(=O)O)NC(=O)[C@H](Cc1ccc2ccccc2c1)NC(=O)Cc1nc2ccc(Cl)cc2s1 | 88 µM | 22 µM | – |
| CCOC(=O)CC[C@H](NC(=O)[C@H](Cc1nn[nH]n1)NC(=O)[C@H](Cc1ccc2ccccc2c1)NC(=O)c1cc2cc(Cl)ccc2[nH]1)C(=O)Nc1ccc(OC(F)(F)F)cc1 | – | – | IC50 (MDA-MB-468): 10.6 µM; Drug uptake [1]: 1.4 nmol/million cells; IC50 (A549): 67.9 µM; IC50 (MDA-MB-231): 16.6 µM; IC50 (HCT-116): 60.6 µM; Drug metabolism [2]: Metabolite_Notdetected; IC50 (SW480): 17.7 µM |
| COC(=O)[C@H](CCC(=O)O)NC(=O)[C@H](CC(=O)O)NC(=O)[C@H](Cc1ccc2ccccc2c1)NC(=O)Cc1nc2cc(Cl)ccc2o1 | > 400 µM | > 100 µM | – |
| COC(=O)[C@H](CCC(=O)O)NC(=O)[C@H](CC(=O)O)NC(=O)[C@H](Cc1ccc2ccccc2c1)NC(=O)c1cc2cc(C)ccc2[nH]1 | > 400 µM | > 100 µM | – |
| COC(=O)[C@H](CCC(=O)O)NC(=O)[C@H](CC(=O)O)NC(=O)[C@H](Cc1ccc2ccccc2c1)NC(=O)Cc1c[nH]c2cc(Cl)ccc12 | > 400 µM | > 100 µM | – |
| COC(=O)[C@H](CCC(=O)O)NC(=O)[C@H](CC(=O)O)NC(=O)[C@H](Cc1ccc2ccccc2c1)NC(=O)Cc1nc2cc(Cl)ccc2s1 | > 400 µM | > 100 µM | – |
| NC(=O)CC[C@H](NC(=O)[C@H](Cc1nn[nH]n1)NC(=O)[C@H](Cc1ccc2ccccc2c1)NC(=O)c1cc2cc(Cl)ccc2[nH]1)C(=O)Nc1ccc(OC(F)(F)F)cc1 | – | – | IC50 (MDA-MB-468): 26.9 µM; IC50 (BT-20): 29.3 µM; IC50 (A549): 47.5 µM; IC50 (MDA-MB-231): 29.3 µM; IC50 (HCT-116): 57.8 µM; IC50 (SW480): 24.6 µM |
| CCOC(=O)CC[C@H](NC(=O)[C@H](CC(=O)OCC)NC(=O)[C@H](Cc1ccc2ccccc2c1)NC(=O)c1cc2cc(OC)ccc2[nH]1)C(=O)OC | > 400 µM | > 100 µM | IC50 (MDA-MB-468): > 200 µM; IC50 (BT-20): > 200 µM; IC50 (A549): > 200 µM; IC50 (MDA-MB-231): > 200 µM; IC50 (HCT-116): > 200 µM; IC50 (SW480): > 200 µM |
| COC(=O)[C@H](CCC(=O)O)NC(=O)[C@H](CC(=O)O)NC(=O)[C@H](Cc1ccc2ccccc2c1)NC(=O)c1cc2ccc(Cl)cc2[nH]1 | 60 µM | 15 µM | – |
| COC(=O)[C@H](CCC(=O)O)NC(=O)[C@H](CC(=O)O)NC(=O)[C@H](Cc1ccc2ccccc2c1)NC(=O)c1cc2cc(OC)ccc2[nH]1 | > 400 µM | > 100 µM | – |
| COC(=O)[C@H](CCC(=O)O)NC(=O)[C@H](CC(=O)O)NC(=O)[C@H](Cc1ccc2ccccc2c1)NC(=O)Cc1c[nH]c2ccc(Cl)cc12 | > 400 µM | > 100 µM | – |
